Measured values: the supplement of paper PMC10307832

Tests used:
Assay in all cases: relative viability (nuclei count vs DMSO), 5 days (fraction); higher = more cells survive
CX-5461 + Crizotinib = compound: Cc1cnc(CNC(=O)c2c(=O)c3ccc(N4CCCN(C)CC4)nc3n3c2sc2ccccc23)cn1 [CX-5461] + C[C@@H](Oc1cc(-c2cnn(C3CCNCC3)c2)cnc1N)c1c(Cl)ccc(F)c1Cl [Crizotinib] (partner 1 µM)
Method in brief: (§1)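 Relative viability is defined as nuclei in treated wells over nuclei in vehicle wells. Duplicate plates were run and medians reported. Lung cancer cell lines in 1536-well plates were dosed by pin tool one day after seeding, with one drug or with a fixed anchor-drug dose plus five library-drug doses (not always all listed) in √10 steps, and nuclei were counted after 5 days.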

CX-5461 + Decitabine = compound: Cc1cnc(CNC(=O)c2c(=O)c3ccc(N4CCCN(C)CC4)nc3n3c2sc2ccccc23)cn1 [CX-5461] + Nc1ncn([C@H]2C[C@H](O)[C@@H](CO)O2)c(=O)n1 [Decitabine] (partner 2 µM)
Method in brief: as §1

IMD-0354 + Tozasertib = compound: O=C(Nc1cc(C(F)(F)F)cc(C(F)(F)F)c1)c1cc(Cl)ccc1O [IMD-0354] + Cc1cc(Nc2cc(N3CCN(C)CC3)nc(Sc3ccc(NC(=O)C4CC4)cc3)n2)n[nH]1 [Tozasertib] (partner 0.1 µM)
Method in brief: as §1

IMD-0354 + Vorinostat = compound: O=C(Nc1cc(C(F)(F)F)cc(C(F)(F)F)c1)c1cc(Cl)ccc1O [IMD-0354] + O=C(CCCCCCC(=O)Nc1ccccc1)NO [Vorinostat] (partner 1 µM)
Method in brief: as §1

| Cell Line | relative viability (CX-5461 + Crizotinib; first compound 0.01 µM) | relative viability (CX-5461 + Crizotinib; first compound 0.03162 µM) | relative viability (CX-5461 + Crizotinib; first compound 0.1 µM) | relative viability (CX-5461 + Crizotinib; first compound 0.3162 µM) | relative viability (CX-5461 + Crizotinib; first compound 1 µM) | relative viability (CX-5461 + Decitabine; first compound 0.01 µM) | relative viability (CX-5461 + Decitabine; first compound 0.03162 µM) | relative viability (CX-5461 + Decitabine; first compound 0.1 µM) | relative viability (CX-5461 + Decitabine; first compound 1 µM) | relative viability (IMD-0354 + Tozasertib; first compound 0.04 µM) | relative viability (IMD-0354 + Tozasertib; first compound 0.1265 µM) | relative viability (IMD-0354 + Tozasertib; first compound 0.4 µM) | relative viability (IMD-0354 + Tozasertib; first compound 1.265 µM) | relative viability (IMD-0354 + Tozasertib; first compound 4 µM) | relative viability (IMD-0354 + Vorinostat; first compound 0.04 µM) | relative viability (IMD-0354 + Vorinostat; first compound 0.1265 µM) | relative viability (IMD-0354 + Vorinostat; first compound 0.4 µM) | relative viability (IMD-0354 + Vorinostat; first compound 1.265 µM) | relative viability (IMD-0354 + Vorinostat; first compound 4 µM) | relative viability (CX-5461 + Decitabine; first compound 0.3162 µM) |
| --- | --- | --- | --- | --- | --- | --- | --- | --- | --- | --- | --- | --- | --- | --- | --- | --- | --- | --- | --- | --- |
| H3255 | 0.849 | 0.957 | 0.883 | 0.268 | 0.662 | 0.634 | 0.611 | 0.73 | 0.624 | 0.631 | 0.602 | 0.493 | 0.586 | 0.387 | 0.743 | 0.796 | 0.587 | 0.43 | 0.288 | – |
| 201T | 1.07 | 1.02 | 1.02 | 1.03 | 1.01 | 0.861 | 0.849 | 0.885 | 0.834 | 1.14 | 0.996 | 0.614 | 1.06 | 0.354 | 0.958 | 1.07 | 0.813 | 0.537 | 0.31 | 0.814 |
| NCI-H2126 | 1.05 | 1.11 | 1.08 | 1.07 | 0.975 | 0.573 | 0.559 | 0.618 | 0.567 | 0.915 | 0.942 | 0.573 | 0.348 | 0.294 | 0.762 | 0.826 | 0.692 | 0.382 | 0.289 | 0.64 |
| HOP-62 | 0.996 | 0.901 | 0.858 | 0.624 | 1.09 | 0.243 | 0.23 | 0.171 | 0.207 | 0.46 | 0.374 | 0.263 | 0.228 | 0.108 | 0.573 | 0.577 | 0.417 | 0.193 | 0.109 | 0.191 |
| NCI-H520 | 0.736 | 0.925 | 0.777 | 0.336 | 0.531 | 0.529 | 0.52 | 0.483 | 0.362 | 0.441 | 0.379 | 0.385 | 0.347 | 0.229 | 0.815 | 0.709 | 0.51 | 0.192 | 0.248 | 0.465 |
| NCI-H1755 | 0.921 | 0.937 | 0.895 | 0.842 | 0.833 | 0.782 | 0.763 | 0.66 | 0.69 | 0.566 | 0.627 | 0.435 | 0.407 | 0.294 | 0.829 | 0.781 | 0.59 | 0.408 | 0.225 | 0.687 |
| NCI-H2023 | 0.584 | 0.558 | – | 0.391 | 0.0858 | 0.223 | 0.178 | – | 0.0728 | 0.338 | 0.296 | 0.23 | 0.126 | 0.117 | 0.7 | 0.738 | 0.464 | 0.127 | 0.104 | 0.178 |
| NCI-H2009 | 1.07 | 1.02 | 1.09 | 1.02 | 0.697 | 0.41 | 0.374 | 0.335 | 0.308 | 0.877 | 0.752 | 0.51 | 0.24 | 0.139 | 0.705 | 0.784 | 0.544 | 0.253 | 0.113 | 0.37 |
